Laboratory results from patent US20090209541A1, “APREPITANT COMPOSITIONS” (Dr. Reddy's Laboratories Ltd., priority 2006, published 2009).
In brackets after ≈: the same amount, converted by molar mass.

Experiments:
[1] = U.S. Pat. Nos. 6,096,742 and 6,583,142; cited from earlier work
[2] = cited from earlier work
[3] = cited from earlier work; remark: listed apart in the source
[4] = Solubility of powder compositions of aprepitant at 25° C. in water (HPLC method); type: physicochemical; conditions: thermodynamic from solid
Method: Solubility of Powder Compositions of Aprepitant at 25° C. in Water
• A. Aprepitant: Neat aprepitant was passed through a BSS # 80 mesh sieve, and its solubility in water was determined using a HPLC method. • B. Aprepitant: PVP K30 (1:1 w/w) solid dispersion: 2 g aprepitant and 2 g PVP K 30 were dissolved in a mixture of 200 ml dichloromethane and 20 ml methanol. This solution was dried in a rotary flash evaporator at 50° C. The dried solid dispersion was passed through a BSS # 80 mesh sieve. • C. Premix of A and B (1:6 w/w): Neat aprepitant and solid dispersion from B was mixed in the weight proportions of 1:6. This mixture was passed through a BSS # 80 mesh sieve. • D. Premix of A and B (1:2 w/w): Neat aprepitant and solid dispersion from B was mixed in the weight proportions of 1:2. This mixture was passed through a BSS # 80 mesh sieve. • E. Premix of A and B (3:2 w/w): Neat aprepitant and solid dispersion from B was mixed in the weight proportions of 3:2. This mixture was passed through a BSS # 80 mesh sieve. • F. Aprepitant: Polysorbate 80 (1:1 w/w): 1 g aprepitant and 1 g polysorbate 80 were mixed together by trituration. […]
Injected blank once, standard solution, all sample preparations in different pH solutions each twice into the chromatographic system. Aprepitant solubility in mg/ml was calculated using following formula: […]

C[C@@H](O[C@H]1OCCN(Cc2n[nH]c(=O)[nH]2)[C@H]1c1ccc(F)cc1)c1cc(C(F)(F)F)cc(C(F)(F)F)c1 [Form I, aprepitant]
solubility relative to Form II [1]: lower solubility as compared to Form II
thermodynamic stability relative to Form II [1]: thermodynamically more stable than Form II

C[C@@H](O[C@H]1OCCN(Cc2n[nH]c(=O)[nH]2)[C@H]1c1ccc(F)cc1)c1cc(C(F)(F)F)cc(C(F)(F)F)c1 [Aprepitant, 5-[[(2R,3S)-2-[(1R)-1-[3,5-bis(trifluoromethyl)phenyl]ethoxy]-3-(4-fluorophenyl)-4-morpholinyl]methyl]-1,2-dihydro-3H-1,2,4-triazol-3-one]
solubility in acetonitrile (descriptive) ([2]; acetonitrile): slightly soluble
solubility in ethanol (descriptive) ([2]; ethanol): sparingly soluble
solubility in isopropyl acetate (descriptive) ([2]; isopropyl acetate): sparingly soluble
solubility in water (descriptive) ([2]; water): practically insoluble
permeability characteristics [3]: poor permeability

C[C@@H](O[C@H]1OCCN(Cc2n[nH]c(=O)[nH]2)[C@H]1c1ccc(F)cc1)c1cc(C(F)(F)F)cc(C(F)(F)F)c1 [A, Aprepitant]
solubility [4]: 0.5 µg/mL (≈ 0.936 µM)
